# From patent publication US11008337B2, “Chiral diaryl macrocycles as modulators of protein kinases” (Turning Point Therapeutics, Inc., priority 2015, dated 2021)
# What was measured:
# Format in all cases: cell-based
# [1] = molecular target: T1, EML4-ALK Ba/F3 (Homo sapiens, UniProt Q9UM73); experiment: Cell proliferation assay, EML4-ALK Ba/F3 stable cell line (CellTiter-Glo); details: Ba/F3-EML4-ALK wild type (variant 1) cells, 72 hours compound incubation; read-out: Cell Proliferation IC50 EML4-ALK Ba/F3
# T1 construct: fused on or other part: Q9HC35 (Echinoderm microtubule-associated protein-like 4)
# From the text: (§1) Creation of CD74-ROS1 and EML4-ALK Ba/F3 Stable Cell Lines and Cell Proliferation Assays.
# (§2) The CD74-ROS1 wild-type gene and EML4-ALK wild-type gene (variant 1) were synthesized at GenScript and cloned into pCDH-CMV-MCS-EF1-Puro plasmid (System Biosciences, Inc). Ba/F3-CD74-ROS1 and Ba/F3-EML4-ALK wild type cell lines were generated by infecting Ba/F3 cells with lentivirus containing CD74-ROS1 wide-type and EML4-ALK wild type. Stable cell lines were selected by puromycin treatment, followed by IL-3 withdrawal. 3000 cells were seeded in 384 well white plate overnight before compound treatment. Cell proliferation was measured using CellTiter-Glo luciferase-based ATP detection assay (Promega) following the manufactures's protocol after 72 hours of various concentration of compound incubation. IC50 determinations were performed using GraphPad Prism software (GraphPad, Inc., San Diego, Calif.).
# [2] = system: essential thrombocythemia cell line SET-2 cells (harboring endogenous JAK2 point mutation); experiment: Cell proliferation assay, SET-2 cells (CellTiter-Glo); details: Homo sapiens, 72 hours incubation, read-out: Cell Proliferation IC50 SET2
# Method: (§3) Cell Proliferation Assays.
# (§4) Colorectal cell lines KM 12 (harboring endogenous TPM3-TRKA fusion gene) cells were cultured in DMEM medium, supplemented with 10% fetal bovine serum and 100 U/mL of penicillin/streptomycin. 5000 cells were seeded in 384 well white plate for 24 hours before compounds treatment. Cell proliferation was measured using CellTiter-Glo luciferase-based ATP detection assay (Promega) following the manufactures's protocol after 72 hours incubation. IC50 determinations were performed using GraphPad Prism software (GraphPad, Inc., San Diego, Calif.). Alternatively, essential thrombocythemia cell line SET-2 cells (harboring endogenous JAK2 V618F point mutation) or T cell lymphoma Karpas-299 cell line (harboring endogenous NPM-ALK fusion gene) were cultured in RPMI medium, supplemented with 10% fetal bovine serum and 100 U/mL of penicillin/streptomycin. 5000 cells were seeded in 384 well white plate for 24 hours before compounds treatment. Cell proliferation was measured using CellTiter-Glo luciferase-based ATP detection assay (Promega) following the manufactures's protocol after 72 hours incubation. IC50 determinations were performed using GraphPad Prism software (GraphPad, Inc., San Diego, Calif.).
# [3] = system: T cell lymphoma Karpas-299 cell line (harboring endogenous NPM-ALK fusion gene); experiment: Cell proliferation assay, Karpas-299 cells (CellTiter-Glo); details: Homo sapiens, 72 hours incubation
# Method: as §3, §4
# [4] = molecular target: T2, CD74-ROS1 Ba/F3 (Homo sapiens, UniProt P08922); experiment: Cell proliferation assay, CD74-ROS1 Ba/F3 stable cell line (CellTiter-Glo); details: Ba/F3-CD74-ROS1 wild type cells, 72 hours compound incubation; read-out: Cell Proliferation IC50 CD74-ROS1 Ba/F3
# T2 construct: fused on or other part: P04233 (HLA class II histocompatibility antigen gamma chain)
# From the text: as §1, §2
# [5] = system: Colorectal cell lines KM 12 (harboring endogenous TPM3-TRKA fusion gene); experiment: Cell proliferation assay, KM12 cells (CellTiter-Glo); details: Homo sapiens, 72 hours incubation
# Method: as §3
# as §4, with “Alternatively, essential thrombocythemia cell line SET-2 cells (harboring endogenous JAK2 V618F point mutation) or T cell lymphoma Karpas-299 cell line (harboring endogenous NPM-ALK fusion gene) were cultured in RPMI medium, supplemented with 10% fetal bovine serum and 100 U/mL of penicillin/streptomycin.” left out
# T1 sequence (Q9UM73 whole entry, change not shown, the tested form may be a part): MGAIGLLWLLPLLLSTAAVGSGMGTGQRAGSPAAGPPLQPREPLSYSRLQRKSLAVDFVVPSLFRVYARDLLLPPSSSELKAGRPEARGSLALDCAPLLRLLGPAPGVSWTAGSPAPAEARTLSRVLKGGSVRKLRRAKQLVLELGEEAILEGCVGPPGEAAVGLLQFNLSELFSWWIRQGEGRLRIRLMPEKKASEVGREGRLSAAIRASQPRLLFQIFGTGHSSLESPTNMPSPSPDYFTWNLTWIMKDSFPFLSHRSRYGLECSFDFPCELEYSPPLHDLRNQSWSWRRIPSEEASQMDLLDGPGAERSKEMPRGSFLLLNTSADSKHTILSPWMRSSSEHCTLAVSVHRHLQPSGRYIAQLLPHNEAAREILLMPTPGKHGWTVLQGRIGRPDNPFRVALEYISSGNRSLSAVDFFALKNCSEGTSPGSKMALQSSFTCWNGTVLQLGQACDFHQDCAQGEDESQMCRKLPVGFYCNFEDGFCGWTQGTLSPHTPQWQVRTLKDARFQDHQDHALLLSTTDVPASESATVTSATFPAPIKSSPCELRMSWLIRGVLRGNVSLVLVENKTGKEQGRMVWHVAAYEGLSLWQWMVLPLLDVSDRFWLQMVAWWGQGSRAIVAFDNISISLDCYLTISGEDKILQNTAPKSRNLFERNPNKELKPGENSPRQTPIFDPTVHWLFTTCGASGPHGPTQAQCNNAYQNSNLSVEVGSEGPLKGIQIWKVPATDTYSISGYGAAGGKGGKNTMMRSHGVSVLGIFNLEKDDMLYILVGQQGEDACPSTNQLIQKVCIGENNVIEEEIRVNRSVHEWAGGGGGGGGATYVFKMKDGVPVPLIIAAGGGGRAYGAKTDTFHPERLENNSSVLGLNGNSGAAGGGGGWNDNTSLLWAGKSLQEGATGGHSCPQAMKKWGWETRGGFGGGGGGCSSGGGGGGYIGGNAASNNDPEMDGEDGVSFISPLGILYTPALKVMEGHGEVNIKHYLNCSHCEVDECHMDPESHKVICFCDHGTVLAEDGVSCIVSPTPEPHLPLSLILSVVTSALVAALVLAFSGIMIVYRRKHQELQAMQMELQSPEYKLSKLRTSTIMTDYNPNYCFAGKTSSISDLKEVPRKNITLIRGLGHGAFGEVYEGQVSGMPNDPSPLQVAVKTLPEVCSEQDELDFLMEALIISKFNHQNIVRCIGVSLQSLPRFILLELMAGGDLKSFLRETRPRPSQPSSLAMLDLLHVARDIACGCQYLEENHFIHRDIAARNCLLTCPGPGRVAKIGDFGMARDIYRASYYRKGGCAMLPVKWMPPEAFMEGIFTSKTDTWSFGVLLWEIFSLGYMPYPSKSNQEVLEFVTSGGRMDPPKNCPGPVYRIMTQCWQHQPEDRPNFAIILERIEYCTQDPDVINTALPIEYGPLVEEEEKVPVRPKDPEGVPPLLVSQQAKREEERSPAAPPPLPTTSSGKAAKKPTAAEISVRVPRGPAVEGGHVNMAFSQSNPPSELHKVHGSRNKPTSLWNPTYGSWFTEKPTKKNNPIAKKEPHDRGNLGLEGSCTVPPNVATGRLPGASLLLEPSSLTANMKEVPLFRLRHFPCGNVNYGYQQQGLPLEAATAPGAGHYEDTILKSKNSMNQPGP
# T2 sequence (P08922 whole entry, change not shown, the tested form may be a part): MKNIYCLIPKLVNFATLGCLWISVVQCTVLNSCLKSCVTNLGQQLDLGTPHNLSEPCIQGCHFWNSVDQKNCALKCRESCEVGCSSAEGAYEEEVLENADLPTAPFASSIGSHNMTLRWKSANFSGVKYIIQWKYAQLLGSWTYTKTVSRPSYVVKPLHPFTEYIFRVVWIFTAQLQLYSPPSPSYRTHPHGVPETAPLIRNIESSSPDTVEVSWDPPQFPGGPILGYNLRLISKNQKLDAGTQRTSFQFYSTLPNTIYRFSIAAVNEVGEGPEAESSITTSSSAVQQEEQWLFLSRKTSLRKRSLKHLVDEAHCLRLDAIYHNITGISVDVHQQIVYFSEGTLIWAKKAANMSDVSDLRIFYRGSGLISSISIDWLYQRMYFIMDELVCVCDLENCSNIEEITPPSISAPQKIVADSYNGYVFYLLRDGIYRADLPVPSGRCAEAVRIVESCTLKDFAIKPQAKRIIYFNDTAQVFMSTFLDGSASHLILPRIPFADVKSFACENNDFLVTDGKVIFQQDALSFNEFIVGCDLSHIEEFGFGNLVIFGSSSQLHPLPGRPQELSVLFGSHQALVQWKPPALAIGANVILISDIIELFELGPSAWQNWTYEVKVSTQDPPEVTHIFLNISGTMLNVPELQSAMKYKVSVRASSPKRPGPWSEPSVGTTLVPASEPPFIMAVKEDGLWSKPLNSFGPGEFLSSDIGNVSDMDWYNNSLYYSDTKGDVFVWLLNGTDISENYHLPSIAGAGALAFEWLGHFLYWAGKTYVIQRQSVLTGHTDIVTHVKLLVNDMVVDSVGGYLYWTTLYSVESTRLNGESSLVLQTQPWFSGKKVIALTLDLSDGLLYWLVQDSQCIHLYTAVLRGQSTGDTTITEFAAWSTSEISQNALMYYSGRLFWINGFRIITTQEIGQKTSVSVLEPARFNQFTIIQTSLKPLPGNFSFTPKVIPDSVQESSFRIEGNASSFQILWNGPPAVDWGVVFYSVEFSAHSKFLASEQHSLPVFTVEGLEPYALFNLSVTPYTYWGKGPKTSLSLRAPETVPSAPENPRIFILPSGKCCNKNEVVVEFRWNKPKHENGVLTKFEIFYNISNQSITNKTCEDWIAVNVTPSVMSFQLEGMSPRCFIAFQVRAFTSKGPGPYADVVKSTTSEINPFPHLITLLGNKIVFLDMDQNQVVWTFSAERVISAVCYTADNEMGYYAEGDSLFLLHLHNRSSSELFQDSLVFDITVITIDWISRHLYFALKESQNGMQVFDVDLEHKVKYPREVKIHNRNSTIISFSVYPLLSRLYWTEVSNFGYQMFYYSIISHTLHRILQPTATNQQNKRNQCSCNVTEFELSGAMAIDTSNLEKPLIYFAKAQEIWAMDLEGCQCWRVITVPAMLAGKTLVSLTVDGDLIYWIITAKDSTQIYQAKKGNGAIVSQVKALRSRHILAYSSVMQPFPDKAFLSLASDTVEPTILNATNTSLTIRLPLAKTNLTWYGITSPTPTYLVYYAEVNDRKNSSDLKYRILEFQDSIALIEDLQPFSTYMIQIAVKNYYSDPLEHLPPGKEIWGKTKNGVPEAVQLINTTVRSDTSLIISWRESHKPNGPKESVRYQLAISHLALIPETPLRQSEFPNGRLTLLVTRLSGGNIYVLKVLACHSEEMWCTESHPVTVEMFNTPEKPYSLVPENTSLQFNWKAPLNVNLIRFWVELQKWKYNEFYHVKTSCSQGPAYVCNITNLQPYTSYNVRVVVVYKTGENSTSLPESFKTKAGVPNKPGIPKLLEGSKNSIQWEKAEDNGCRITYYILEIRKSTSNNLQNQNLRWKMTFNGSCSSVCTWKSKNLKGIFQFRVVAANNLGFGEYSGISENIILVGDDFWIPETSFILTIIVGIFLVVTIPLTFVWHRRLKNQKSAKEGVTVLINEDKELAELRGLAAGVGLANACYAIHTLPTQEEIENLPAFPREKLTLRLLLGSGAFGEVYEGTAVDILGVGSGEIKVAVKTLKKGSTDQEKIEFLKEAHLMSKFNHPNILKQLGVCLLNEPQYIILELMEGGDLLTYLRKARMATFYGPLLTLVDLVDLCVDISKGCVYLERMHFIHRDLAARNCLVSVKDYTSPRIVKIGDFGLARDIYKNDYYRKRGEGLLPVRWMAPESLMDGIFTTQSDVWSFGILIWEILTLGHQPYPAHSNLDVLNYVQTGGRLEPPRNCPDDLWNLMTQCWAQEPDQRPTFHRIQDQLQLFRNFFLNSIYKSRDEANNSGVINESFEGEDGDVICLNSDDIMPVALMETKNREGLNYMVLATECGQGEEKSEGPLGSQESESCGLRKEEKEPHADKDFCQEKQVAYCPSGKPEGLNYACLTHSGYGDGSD
GI50 [1],IC50 [3],GI50 [4],SMILES,IC50 [2],IC50 [5]
406 nM,193 nM,0.5 nM,"CC[C@H]1Nc2ccn3ncc(c3n2)C(=O)NCCOc2ccc(F)cc21 [Compound 19, (13R)-13-ethyl-11-fluoro-6,7,13,14-tetrahydro-1,15-ethenopyrazolo[4,3-f][1,4,8,10]benzoxatriazacyclotridecin-4(5H)-one]",294 nM,0.6 nM
13.4 nM,16.7 nM,0.2 nM,"CC[C@@H]1CNC(=O)c2cnn3ccc(nc23)N[C@H](C)c2cc(F)ccc2O1 [Compound 1, (7R,13R)-7-ethyl-11-fluoro-13-methyl-6,7,13,14-tetrahydro-1,15-ethenopyrazolo[4,3-f][1,4,8,10]benzoxatriazacyclotridecin-4(5H)-one]",67.6 nM,0.2 nM
3000 nM,–,–,"C[C@H]1CNC(=O)c2cnn3ccc(nc23)NC(C(=O)N(C)C)c2cc(F)ccc2O1 (stereo partly drawn) [Compound 62, (7S)-11-fluoro-N,N,7-trimethyl-4-oxo-4,5,6,7,13,14-hexahydro-1,15-ethenopyrazolo[4,3-f][1,4,8,10]benzoxatriazacyclotridecine-13-carboxamide]",3570 nM,112 nM
31 nM,–,–,"CC[C@@H]1CNC(=O)c2cnn3ccc(nc23)N[C@H](C)c2cc(F)cnc2O1 [Compound 58, (7R,13R)-7-ethyl-11-fluoro-13-methyl-6,7,13,14-tetrahydro-1,15-ethenopyrazolo[4,3-f]pyrido[3,2-l][1,4,8,10]oxatriazacyclotridecin-4(5H)-one]",174 nM,0.2 nM
665 nM,–,–,"C[C@H]1Nc2ccn3ncc(c3n2)C(=O)NC[C@@H](CN2CCCC2)Oc2ccc(F)cc21 [Compound 57, (7S,13R)-11-fluoro-13-methyl-7-[(pyrrolidin-1-yl)methyl]-6,7,13,14-tetrahydro-1,15-ethenopyrazolo[4,3-f][1,4,8,10]benzoxatriazacyclotridecin-4(5H)-one]",132 nM,70 nM
2000 nM,–,–,"C[C@@H]1Nc2ccn3ncc(c3n2)C(=O)NC[C@H](C)Oc2ncc(F)cc21 [Compound 59, (7S,13S)-11-fluoro-7,13-dimethyl-6,7,13,14-tetrahydro-1,15-ethenopyrazolo[4,3-f]pyrido[3,2-l][1,4,8,10]oxatriazacyclotridecin-4(5H)-one]",402 nM,5.5 nM
2000 nM,–,–,"C[C@H]1Nc2ccn3ncc(c3n2)C(=O)N[C@H]2CCC[C@@H]2Oc2ccc(F)cc21 [Compound 46, (3aS,9R,17aS)-7-fluoro-9-methyl-1,2,3,3a,9,10,17,17a-octahydro-16H-11,13-ethenocyclopenta[b]pyrazolo[4,3-f][1,4,8,10]benzoxatriazacyclotridecin-16-one]",400 nM,11 nM
459 nM,–,5.1 nM,"O=C1NCCOc2ccc(F)cc2[C@@H](CCF)Nc2ccn3ncc1c3n2 [Compound 23, (13R)-11-fluoro-13-(2-fluoroethyl)-6,7,13,14-tetrahydro-1,15-ethenopyrazolo[4,3-f][1,4,8,10]benzoxatriazacyclotridecin-4(5H)-one]",236 nM,1.3 nM
80 nM,–,–,"C[C@H]1Nc2ccn3ncc(c3n2)C(=O)N[C@@H]2CCC[C@H]2Oc2ccc(F)cc21 [Compound 43, (3aR,9R,17aR)-7-fluoro-9-methyl-1,2,3,3a,9,10,17,17a-octahydro-16H-11,13-ethenocyclopenta[b]pyrazolo[4,3-f][1,4,8,10]benzoxatriazacyclotridecin-16-one]",44 nM,1 nM
5000 nM,–,–,"C[C@H]1Nc2ccn3ncc(c3n2)C(=O)N[C@H]2CNC[C@H]2Oc2ccc(F)cc21 [Compound 48, (3aR,9R,17aS)-7-fluoro-9-methyl-1,2,3,3a,9,10,17,17a-octahydro-16H-11,13-ethenopyrazolo[4,3-f]pyrrolo[3,4-b][1,4,8,10]benzoxatriazacyclotridecin-16-one]",> 10000 nM,> 10000 nM
8000 nM,–,–,"CNC(=O)C1Nc2ccn3ncc(c3n2)C(=O)NC[C@H](C)Oc2ccc(F)cc21 (stereo partly drawn) [Compound 61, (7S)-11-fluoro-N,7-dimethyl-4-oxo-4,5,6,7,13,14-hexahydro-1,15-ethenopyrazolo[4,3-f][1,4,8,10]benzoxatriazacyclotridecine-13-carboxamide]",1070 nM,73.7 nM
1480 nM,–,–,"C[C@H]1Nc2ccn3ncc(c3n2)C(=O)N2CCC[C@H](C2)Oc2ccc(F)cc21 [Compound 52, (9R,15R)-13-fluoro-15-methyl-6,7,8,9,15,16-hexahydro-4H-1,17-etheno-5,9-methanopyrazolo[4,3-h][1,6,10,12]benzoxatriazacyclopentadecin-4-one]",768 nM,8.7 nM
3000 nM,–,–,"C[C@H]1Nc2ccn3ncc(c3n2)C(=O)N[C@H]2CCCC[C@@H]2Oc2ccc(F)cc21 [Compound 44, (4aS,10R,18aS)-8-fluoro-10-methyl-2,3,4,4a,10,11,18,18a-octahydro-12,14-ethenodibenzo[b,l]pyrazolo[4,3-f][1,4,8,10]oxatriazacyclotridecin-17(1H)-one]",1800 nM,56 nM
3000 nM,–,–,"C[C@H]1Nc2ccn3ncc(c3n2)C(=O)N2CCC[C@@H](C2)Oc2ccc(F)cc21 [Compound 53, (9S,15R)-13-fluoro-15-methyl-6,7,8,9,15,16-hexahydro-4H-1,17-etheno-5,9-methanopyrazolo[4,3-h][1,6,10,12]benzoxatriazacyclopentadecin-4-one]",505 nM,37.3 nM
150 nM,–,–,"C[C@H]1Nc2ccn3ncc(c3n2)C(=O)N[C@H]2CCC[C@H]2Oc2ccc(F)cc21 [Compound 41, (3aR,9R,17aS)-7-fluoro-9-methyl-1,2,3,3a,9,10,17,17a-octahydro-16H-11,13-ethenocyclopenta[b]pyrazolo[4,3-f][1,4,8,10]benzoxatriazacyclotridecin-16-one]",78.5 nM,3 nM
218 nM,–,–,"C[C@H]1CNC(=O)c2cnn3ccc(nc23)N[C@H](C)c2cc(F)cnc2O1 [Compound 60, (7S,13R)-11-fluoro-7,13-dimethyl-6,7,13,14-tetrahydro-1,15-ethenopyrazolo[4,3-f]pyrido[3,2-l][1,4,8,10]oxatriazacyclotridecin-4(5H)-one]",30.3 nM,0.35 nM
> 10000 nM,–,–,"C[C@H]1Nc2ccn3ncc(c3n2)C(=O)N[C@@H]2CCCC[C@H]2Oc2ccc(F)cc21 [Compound 45, (4aR,10R,18aR)-8-fluoro-10-methyl-2,3,4,4a,10,11,18,18a-octahydro-12,14-ethenodibenzo[b,l]pyrazolo[4,3-f][1,4,8,10]oxatriazacyclotridecin-17(1H)-one]",206 nM,0.4 nM
88.5 nM,166 nM,–,"COC[C@@H]1CNC(=O)c2cnn3ccc(nc23)N[C@H](C)c2cc(F)ccc2O1 [Compound 25, (7S,13R)-11-fluoro-7-(methoxymethyl)-13-methyl-6,7,13,14-tetrahydro-1,15-ethenopyrazolo[4,3-f][1,4,8,10]benzoxatriazacyclotridecin-4(5H)-one]",134 nM,6.1 nM
